{"source": "patent US7445891B2", "about": "“Nucleic acid triggered catalytic drug and probe release” (priority 2001, dated 2008)", "key": {"[1]": {"tested_on": "hairpin enzyme 3a", "assay": "Two component hairpin system: p-nitrophenolate / 7-hydroxycoumarin release from 8-mer prodrugs", "assay_type": "biochemical", "settings": "for Enhancement: (kcat/KM)/kIm", "procedure": "Initial velocities of the reaction, obtained for each substrate concentration, were fitted to the Michaelis-Menten equation by a non-linear least squares method using KaleidaGraph software. The inhibition constant KI was determined in the presence of 25 mM 7d ([…]) in 10 mM sodium phosphate buffer pH 7.0 containing 1.0 M NaCl by the plotting 1/v vs. 1/[S] and calculating KI from the slope of the line according following equation:\n(§1) [formula] where v is the velocity of the reaction, Vmax is the maximum velocity, KM is the substrate concentration at half maximal reaction rate, [I] is the inhibitor concentration, and [S] is the substrate concentration. Kinetics of p-nitrophenol and 7-hydroxycoumarin Release by Imidazole Alone"}, "[2]": {"tested_on": "15-mer catalytic component 3b and 23-mer template 4", "assay": "Three component system: release from 8-mer prodrug with imidazole 15-mer and triggering 23-mer", "assay_type": "biochemical", "procedure": "For typical assays, pNP-8-mer 1 (SEQ ID NO:1) and Im-15-mer 2 were incubated in 10 mM sodium phosphate, pH 7.0, which contained 0.1 M or 1.0 M NaCl in an ultra-micro ([…]) UV cell (Varian). The reaction temperature was maintained at 20° C., and the production of p-nitrophenolate was monitored by UV absorbance at 400 nm (e400=6.26′10^3). Initial velocities of the reaction, obtained for each substrate concentration, were fitted to the Michaelis-Menten equation by a non-linear least squares method with KaleidaGraph software. The inhibition constant KI was determined in the presence of 20 mM d([…]) in 10 mM sodium phosphate buffer pH 7.0 containing 1.0 M NaCl by the plotting 1/v vs. 1/[S] and calculating KI from the slope of the line according following equation:\n[formula] where v is the velocity of the reaction, Vmax is the maximum velocity, KM is the substrate concentration at half maximal reaction rate, [I] is the inhibitor concentration, and [S] is the substrate concentration. For comparison purposes, the reaction rate constant kIm for the imidazole catalyzed hydrolysis of N-maleoyl-D-valine p-nitrophenyl ester 8 was determined in imidazole buffer at pH 7.0, 1.0 M NaCl at 20° C. as previously described. […]\nas §1"}, "[3]": {"settings": "1 M NaCl; cited from earlier work"}, "[4]": {"assay": "Imidazole catalyzed hydrolysis of esters (imidazole alone)", "assay_type": "physicochemical", "settings": "20° C.", "quoted_text": "For comparison purposes, the rate constant kIm for the imidazole catalyzed hydrolysis of the various esters were determined in imidazole buffer at pH 7.0, 0.5 M NaCl at 20° C. as previously described. The imidazole buffers were prepared in 0.5 M NaCl, and adjusted to pH 7 by addition of 1 M HCl. […] The pseudo first-order rate constant for each concentration of imidazole was obtained by linear least squares fitting of In(A¥-A) or In(F¥-F) vs. time. The rate constants were then plotted against total imidazole concentration to get ko, the first order rate constant for the uncatalyzed hydrolysis reaction, and kIm, the second-order rate constant for catalysis by imidazole buffer."}, "[5]": {"tested_on": "imidazole hairpin 3a", "assay": "Fluorescein release from fluorescein dipivalate ODNs by imidazole hairpin", "assay_type": "biochemical", "settings": "10 mM ODN, 5 mM hairpin 3a, 0.1 M phosphate pH 7.0, 20° C.; relative to 7a", "excerpt": "FIG. 11. […] For comparison, the release of fluorescein from the fluorescein tetramer 7aby imidazole at 0.1 M imidazole alone is also shown.\nBecause of the strong fluorescence and widespread use of fluorescein as a fluorescent probe, the rate of fluorescein release by imidazole catalyzed hydrolysis of diacetyl fluorescein was investigated. Diacetylated fluoresceins are non-fluorescent, but upon hydrolysis of the acyl groups become highly fluorescent. Attempts to attach the N-hydroxysuccinimide derivative of diacetylcarboxyfluorescein via amide bond formation with the 3′-amino linked oligodeoxynucleotide 5 (FIG. 4) failed due to the high pH required for the reaction which led to the premature hydrolysis of the acetate groups. Attempts to conjugate 5-chloromethyl fluorescein diacetate with a 3′-phosphorothioate labeled ODN also failed at pH 7. […] The TMs of 7a-cwere estimated from thermodynamic parameters to be -20, 19, and 41° C. under the conditions of the experiment and have equilibrium dissociation constants of 3.4 mM, 8.1 mM, and 14 nM."}, "[6]": {"tested_on": "E. coil 5S rRNA", "assay": "Hydroxycoumarin release from PNA constructs on 5S rRNA trigger", "assay_type": "biochemical, E. coli", "settings": "unoptimized test", "excerpt": "FIG. 16. A series of PNA constructs was synthesized to target one of the hairpin loops of commercially available E. coil 5S rRNA (SEQ ID NO:11) as the nucleic acid trigger. This rRNA has been thoroughly characterized by enzymatic and chemical probes, and is therefore a suitable initial model for studying and optimizing various catalytic drug releasing motifs in folded […].\nFIG. 19. […] In contrast, there was no difference in the rate of release of hydroxycoumarin from the 6-mer conjugate in the presence or absence of the histidine, or the catalytic component. (not shown)."}, "[7]": {"assay": "Hydrolysis of esters in human serum", "quoted_text": "In a typical run, 3 mL of coumarin ester solution (7 mM in acetonitrile) was added to 400 mL of Human serum, pH 8.3 (Innovative Research Inc.) in cuvette. The cuvette was capped, inverted several times for thorough mixing, placed in a cell block and recording was begun."}}, "data": [{"molecule": "16a: D-valine p-nitrophenyl ester linked to the 3'-end of 8-mer ODN d(TCCTGTCA) (DNA, backbone not given here; further chemistry not fully specified)", "values": [{"measurement": "drop in kcat relative to b-alanine ester 15a", "setting": "[1]; 1.0 M NaCl", "value": 8.3, "unit": "fold"}, {"measurement": "Enhancement", "setting": "[1]; 1.0 M NaCl", "value": 429}, {"measurement": "p-nitrophenol formed during the course of the reaction", "setting": "[2]; 5 mM catalytic ODN and 5 mM triggering ODN", "value": "about 15 mM"}, {"measurement": "release more efficient with fully matched than mismatched template", "setting": "[2]; 0.1 M NaCl, 20° C.", "value": 7.5, "unit": "fold"}, {"measurement": "difference in rate, matched vs mismatched template", "setting": "[2]; 1 M NaCl", "value": 1.4, "unit": "fold"}, {"measurement": "Vmax", "setting": "[2]; 1 M NaCl, pH 7, 20° C.", "value": 0.09, "unit": "mM/min"}, {"measurement": "kcat", "setting": "[2]; 1 M NaCl, pH 7, 20° C.", "value": 0.018, "unit": "min⁻¹"}, {"measurement": "initial rate of p-nitrophenol release", "setting": "[2]; 15-mer lacking an appended imidazole group, 1 M NaCl, pH 7, 20° C.", "value": 0.0008, "unit": "mM/min"}, {"measurement": "rate acceleration over hydrolysis catalyzed by free imidazole", "setting": "[2]; (kcat/KM)/kIm", "value": 976, "unit": "fold"}, {"measurement": "Enhancement", "setting": "[2]; (kcat/KM)/kIm, 1.0 M NaCl", "value": 974}, {"measurement": "initial rate of p-nitrophenol release", "setting": "[2]; absence of the 23-mer or Im-15-mer, 1 M NaCl, pH 7, 20° C.", "value": 0.002, "unit": "mM/min"}, {"measurement": "initial rate of p-nitrophenol release", "setting": "[2]; all three components, 1 M NaCl, pH 7, 20° C.", "value": 0.057, "unit": "mM/min"}, {"measurement": "initial rate of release of p-nitrophenol", "setting": "[2]; fully matched 23-mer, 0.1 M NaCl, 20° C.", "value": 0.028, "unit": "mM/min"}, {"measurement": "initial rate of release of p-nitrophenol", "setting": "[2]; mismatched 23-mer (T at position 20 replaced with C), 0.1 M NaCl, 20° C.", "value": 0.0037, "unit": "mM/min"}]}, {"molecule": "d(GGAGCTTGCTCC): hairpin ODN of the literature (SEQ ID NO:18) (DNA, backbone not given here; hairpin)", "values": [{"measurement": "TM reported", "setting": "[3]", "value": 71, "unit": "°C"}]}, {"molecule": "CC(C)[C@H](C(=O)Oc1ccc([N+](=O)[O-])cc1)N1C(=O)C=CC1=O", "note": "[11a, N-maleoyl-D-valine p-nitrophenyl ester]", "values": [{"measurement": "kIm", "setting": "[4]; imidazole buffer pH 7.0, 1.0 M NaCl", "value": 0.014, "unit": "M⁻¹ s⁻¹"}]}, {"molecule": "15a (X = G): matched b-alanine p-nitrophenyl ester 8-mer ODN prodrug (SEQ ID NO:10) (TCCTNTCA; beta-alanine p-nitrophenyl ester prodrug, chemistry not fully specified)", "values": [{"measurement": "time in which four turnovers are complete", "setting": "[1]; 20 mM prodrug, 5 mM hairpin 3a, 1 M NaCl, pH 7, 20° C.", "value": "about 4 h"}, {"measurement": "kcat", "setting": "[1]; 1.0 M NaCl, 10 mM phosphate buffer pH 7.0, 20° C., listed as 15a", "value": 0.0029, "unit": "s⁻¹"}, {"measurement": "Enhancement", "setting": "[1]; 0.1 M NaCl", "value": 281}, {"measurement": "Enhancement", "setting": "[1]; 1.0 M NaCl", "value": 446}, {"measurement": "koff needed to account for observed KM", "setting": "[1]; assuming on rate 10^6 M^−1s^−1", "value": 50, "unit": "s⁻¹"}, {"measurement": "rate enhancement of ester hydrolysis relative to imidazole alone", "setting": "[1]; kcat/KM compared with kIm", "value": 446, "unit": "fold"}]}, {"molecule": "7a: 4-mer ODN derivatized with bis-pivaloyl fluorescein (SEQ ID NO:7) (GTCA; DNA, backbone not given here; further chemistry not fully specified)", "values": [{"measurement": "relative initial rates of fluorescein release", "setting": "[5]", "value": 1}]}, {"molecule": "8-mer PNA construct: hydroxycoumarin-bearing 8-mer PNA (SEQ ID NO:15) targeting E. coli 5S rRNA hairpin loop (CTGGGGTA; all peptide nucleic acid (PNA); hydroxycoumarin attached, position not given here)", "values": [{"measurement": "rate of hydroxycoumarin release, all three components vs absence of the entire catalytic PNA", "setting": "[6]", "value": 4, "unit": "fold"}, {"measurement": "rate of hydroxycoumarin release, all three components vs all three minus the histidine", "setting": "[6]", "value": 2, "unit": "fold"}]}, {"molecule": "CC(=O)Oc1ccc([N+](=O)[O-])cc1", "note": "[p-nitrophenylacetate, reference compound]", "values": [{"measurement": "klm", "setting": "[4]; imidazole catalyzed rate constant, pH 7, 0.5 M NaCl", "value": 0.13, "unit": "M⁻¹ s⁻¹"}]}, {"molecule": "N-maleoyl-b-alanine-coumarin ester [9c]", "values": [{"measurement": "stability to hydrolysis by human serum, compared", "setting": "[7]", "value": "more stable than the CBZ-glycine ester, but much less stable than the maleoyl-D-valine esters"}]}, {"molecule": "15a (SEQ ID NO:10) (X=C): mismatched b-alanine p-nitrophenyl ester 8-mer prodrug, G to C transversion (DNA TCCTNTCA; b-alanine p-nitrophenyl ester prodrug, chemistry not fully specified)", "values": [{"measurement": "difference in initial rates of p-nitrophenolate release, matched 15a (X=G) vs single CC mismatch", "setting": "[1]; 1 M NaCl", "value": 11, "unit": "fold"}, {"measurement": "increase in Kd of mismatch substrate needed to account for rate difference", "setting": "[1]; rates proportional to (Kd+[S])^−1", "value": 15, "unit": "fold"}]}, {"molecule": "7c: 8-mer ODN derivatized with bis-pivaloyl fluorescein (SEQ ID NO:9) (TCCTGTCA; DNA, backbone not given here; further chemistry not fully specified)", "values": [{"measurement": "relative initial rates of fluorescein release", "setting": "[5]", "value": 493}]}]}
